In patent US8124135B2, “Compositions and methods for reduction of LDL oxidation” (VDF FutureCeuticals, Inc., priority 2005, dated 2012):

Test system: Cu-induced LDL oxidation in human serum
Assay: Cu-induced LDL oxidation in human serum ex vivo (fluorescence)
Details: after 2 hrs of serum exposure to copper ions
Protocol: Total amounts of cholesterol, HDL, LDL, triglycerides were measured using Cholestech System. SPG in powder form was provided by VDF FutureCeuticals, Inc. and dissolved in water at various ad indicated concentrations. Copper chloride was from Sigma. Black transparent-bottom 96-well plates were from Nalgene Nunc International. Oxidation of LDL was measured using fluorescence methods as described elsewhere (supra). Cu-induced LDL oxidation was performed in PBS (100 ul/well) with 4 ul of human sera, 2 ul of copper chloride (concentration 4 mM) and 0.5 ul of H2O2 (concentration 88.2 nM) resulting in 8-uM concentration of copper ions and 44 μM of hydrogen peroxide, respectively. Formation of Cu-induced oxLDL was measured directly in human serum using a 96-well plate set up and Gemini Fluorescent plate reader (Molecular Devices). The fluorescence signal at 360/430 and 360/470 was measured at time 0, 2 and 16 hours. oxLDL fluorescence values compared to concentration 0 on each graph show how much fluorescent signal for oxidized LDL increased between time 0 and 2 or 16 hrs, respectively, while the value at concentration 0 represents the max increase of oxLDL generation under the experimental conditions.

With O=C1O[C@H]([C@@H](O)CO)C(O)=C1O [ascorbic acid] the “IC50 of Cu-induced LDL oxidation in serum” value was 69 µg/mL.
